Experimental data taken from ChEMBL document CHEMBL3991601, “The target landscape of clinical kinase drugs” (Science, 2017).
Calls of active or inactive are those of the source.

How the values were obtained:
[1] = biological target: T1, Serine/threonine-protein kinase Nek1 (Homo sapiens, UniProt Q96PY6)
T1 sequence (Q96PY6 whole entry): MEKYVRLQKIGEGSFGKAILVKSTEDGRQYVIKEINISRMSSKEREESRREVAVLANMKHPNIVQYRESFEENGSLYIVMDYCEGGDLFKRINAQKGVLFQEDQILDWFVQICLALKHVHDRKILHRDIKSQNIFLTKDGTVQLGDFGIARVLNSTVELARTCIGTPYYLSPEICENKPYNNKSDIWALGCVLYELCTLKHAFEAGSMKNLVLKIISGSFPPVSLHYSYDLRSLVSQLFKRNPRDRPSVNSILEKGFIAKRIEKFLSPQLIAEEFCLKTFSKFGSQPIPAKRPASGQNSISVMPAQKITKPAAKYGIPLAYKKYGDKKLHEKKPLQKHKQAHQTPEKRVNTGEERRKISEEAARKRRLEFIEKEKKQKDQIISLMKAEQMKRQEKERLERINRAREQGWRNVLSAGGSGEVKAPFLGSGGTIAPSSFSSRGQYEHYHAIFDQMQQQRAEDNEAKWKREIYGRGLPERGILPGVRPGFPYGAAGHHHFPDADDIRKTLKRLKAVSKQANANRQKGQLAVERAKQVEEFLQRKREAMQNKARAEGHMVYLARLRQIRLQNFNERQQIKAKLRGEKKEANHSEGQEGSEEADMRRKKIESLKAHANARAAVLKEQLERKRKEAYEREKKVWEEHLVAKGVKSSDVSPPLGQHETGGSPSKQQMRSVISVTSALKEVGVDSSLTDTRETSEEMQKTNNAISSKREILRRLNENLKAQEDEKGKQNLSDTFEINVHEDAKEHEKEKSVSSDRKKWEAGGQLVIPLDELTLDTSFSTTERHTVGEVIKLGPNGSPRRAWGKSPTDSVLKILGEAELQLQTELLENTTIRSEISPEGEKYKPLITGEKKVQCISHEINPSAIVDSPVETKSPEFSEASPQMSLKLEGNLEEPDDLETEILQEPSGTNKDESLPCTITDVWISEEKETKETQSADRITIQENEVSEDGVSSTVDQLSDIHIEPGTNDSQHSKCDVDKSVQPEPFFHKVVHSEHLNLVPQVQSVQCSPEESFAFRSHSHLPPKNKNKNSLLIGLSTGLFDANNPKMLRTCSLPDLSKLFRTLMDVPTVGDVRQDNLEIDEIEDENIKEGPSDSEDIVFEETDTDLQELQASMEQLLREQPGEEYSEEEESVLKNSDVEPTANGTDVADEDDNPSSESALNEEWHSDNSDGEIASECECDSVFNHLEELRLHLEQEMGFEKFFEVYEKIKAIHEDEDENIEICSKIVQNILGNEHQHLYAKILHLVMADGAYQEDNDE

[2] = biological target: T2, Bifunctional phosphoribosylaminoimidazole carboxylase/phosphoribosylaminoimidazole succinocarboxamide synthetase (Homo sapiens, UniProt P22234)
T2 sequence (P22234 whole entry): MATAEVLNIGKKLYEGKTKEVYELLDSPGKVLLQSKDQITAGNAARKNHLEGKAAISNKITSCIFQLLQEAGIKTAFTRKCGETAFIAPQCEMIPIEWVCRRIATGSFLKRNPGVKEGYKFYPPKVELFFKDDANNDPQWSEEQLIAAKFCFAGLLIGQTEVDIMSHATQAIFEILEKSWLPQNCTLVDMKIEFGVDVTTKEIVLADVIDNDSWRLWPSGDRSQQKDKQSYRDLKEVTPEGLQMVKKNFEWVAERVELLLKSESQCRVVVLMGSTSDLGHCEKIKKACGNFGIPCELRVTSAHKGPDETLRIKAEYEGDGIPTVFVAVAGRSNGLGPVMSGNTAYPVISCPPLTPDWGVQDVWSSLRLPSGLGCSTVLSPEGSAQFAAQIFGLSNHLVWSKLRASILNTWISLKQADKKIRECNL

[3] = biological target: T3, Delta(24)-sterol reductase (Homo sapiens, UniProt Q15392)
T3 sequence (Q15392 whole entry): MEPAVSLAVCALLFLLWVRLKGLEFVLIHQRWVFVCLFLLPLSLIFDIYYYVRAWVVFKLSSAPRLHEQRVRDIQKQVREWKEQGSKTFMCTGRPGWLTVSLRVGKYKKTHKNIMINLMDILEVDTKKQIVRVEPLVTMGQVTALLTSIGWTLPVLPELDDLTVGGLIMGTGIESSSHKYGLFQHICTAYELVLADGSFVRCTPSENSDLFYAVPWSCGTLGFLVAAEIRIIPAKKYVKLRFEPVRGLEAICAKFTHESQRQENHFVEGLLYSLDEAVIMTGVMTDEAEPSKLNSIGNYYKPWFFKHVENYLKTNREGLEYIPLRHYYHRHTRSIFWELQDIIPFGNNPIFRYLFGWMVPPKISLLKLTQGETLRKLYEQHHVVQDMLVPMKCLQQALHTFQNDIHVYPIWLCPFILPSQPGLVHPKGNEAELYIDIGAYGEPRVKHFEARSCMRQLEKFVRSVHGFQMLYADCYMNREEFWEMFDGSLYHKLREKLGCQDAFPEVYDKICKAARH

[4] = biological target: T4, MAP/microtubule affinity-regulating kinase 4 (Homo sapiens, UniProt Q96L34)
T4 sequence (Q96L34 whole entry): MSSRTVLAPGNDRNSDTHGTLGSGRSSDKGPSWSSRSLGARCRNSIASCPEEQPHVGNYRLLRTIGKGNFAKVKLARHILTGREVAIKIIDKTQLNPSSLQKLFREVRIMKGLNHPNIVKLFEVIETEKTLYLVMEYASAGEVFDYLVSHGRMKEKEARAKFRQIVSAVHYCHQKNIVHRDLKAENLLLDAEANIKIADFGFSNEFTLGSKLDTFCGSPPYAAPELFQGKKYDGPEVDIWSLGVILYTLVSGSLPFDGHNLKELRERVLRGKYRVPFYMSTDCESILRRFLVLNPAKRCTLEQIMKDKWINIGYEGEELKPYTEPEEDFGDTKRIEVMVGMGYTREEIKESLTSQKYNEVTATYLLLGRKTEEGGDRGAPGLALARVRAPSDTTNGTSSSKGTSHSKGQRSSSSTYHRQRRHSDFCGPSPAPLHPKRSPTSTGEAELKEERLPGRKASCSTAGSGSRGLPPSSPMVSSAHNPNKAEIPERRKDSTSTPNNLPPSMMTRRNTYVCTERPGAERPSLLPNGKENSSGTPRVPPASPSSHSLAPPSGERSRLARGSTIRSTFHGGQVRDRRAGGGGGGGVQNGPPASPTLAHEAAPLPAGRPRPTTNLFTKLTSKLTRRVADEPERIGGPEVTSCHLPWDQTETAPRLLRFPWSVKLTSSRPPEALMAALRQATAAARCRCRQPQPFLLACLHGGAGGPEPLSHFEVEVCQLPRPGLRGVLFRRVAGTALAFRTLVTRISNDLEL

Measured: Kd
Note: in the data inactive means no Kd found up to 30 µM.

Cn1cc(-c2cnc3ccc4ccc(CS(=O)(=O)NCc5ccccn5)cc4c(=O)c3c2)cn1 [MK-8033]
inactive: [1] > 30 µM | [2] > 30 µM | [3] > 30 µM | [4] > 30 µM

Cn1cc(C2=C(c3cn(C4CCN(Cc5ccccn5)CC4)c4ccccc34)C(=O)NC2=O)c2ccccc21 [ENZASTAURIN]
inactive: [2] > 30 µM | [3] > 30 µM

CN(C[C@@H]1COCCO1)S(=O)(=O)Nc1ccc2ccc3ncc(-c4cnn(C)c4)cc3c(=O)c2c1 [MK-2461]
inactive: [1] > 30 µM | [2] > 30 µM | [3] > 30 µM

CN1C/C=C/CCOc2cccc(c2)-c2ccnc(n2)Nc2cccc(c2)C1 [ZOTIRACICLIB]
inactive: [1] > 30 µM | [2] > 30 µM | [3] > 30 µM

CC(=O)c1cnc2ccc(-c3cc(Cl)c(O)c(Cl)c3)nc2c1N[C@H]1CC[C@H](CN(C)C)CC1
inactive: [1] > 30 µM | [2] > 30 µM | [3] > 30 µM

Cc1cc(Nc2ncc(Cl)c(Nc3ccccc3S(=O)(=O)C(C)C)n2)c(OC(C)C)cc1C1CCNCC1 [CERITINIB]
inactive: [1] > 30 µM | [2] > 30 µM | [3] > 30 µM | [4] > 30 µM

CC(C)(C)c1nc(-c2cccc(NS(=O)(=O)c3c(F)cccc3F)c2F)c(-c2ccnc(N)n2)s1 [DABRAFENIB]
inactive: [2] > 30 µM | [3] > 30 µM | [4] > 30 µM

Cc1nc2cc(-n3ncc(C(=O)c4cc5ccccc5[nH]4)c3N)ccc2[nH]1 [FGFR INHIBITOR DEBIO 1347]
inactive: [1] > 30 µM | [2] > 30 µM | [3] > 30 µM | [4] > 30 µM

CCn1cc(-c2ccnc3[nH]c(-c4cccc(CN(C)C)c4)cc23)c(-c2ccc(NC(=O)N(C)C)cc2)n1 [GSK-1070916]
inactive: [1] > 30 µM | [2] > 30 µM | [3] > 30 µM | [4] > 30 µM

C[C@@H](N)c1ccc(C(=O)Nc2ccnc3[nH]ccc23)cc1 [Y-39983]
inactive: [1] > 30 µM | [2] > 30 µM | [3] > 30 µM | [4] > 30 µM

N#CC1(c2ccc(NC(=O)c3cccnc3NCc3ccncc3)cc2)CCCC1 [RIVOCERANIB]
inactive: [1] > 30 µM | [2] > 30 µM | [3] > 30 µM | [4] > 30 µM

CCNC(=O)C#Cc1ccc2c(c1)NC(=O)/C2=C(\Nc1ccc(CN(C)C)cc1)c1ccccc1
inactive: [1] > 30 µM | [2] > 30 µM | [3] > 30 µM | [4] > 30 µM

CC(C)c1cc(CNc2nc(Nc3cc(C4CC4)[nH]n3)cc(N3CCN(C)CC3)n2)on1 [XL-228]
inactive: [1] > 30 µM | [2] > 30 µM | [3] > 30 µM | [4] > 30 µM

O=C(Nc1cc(C(F)(F)F)cc(C(F)(F)F)c1)c1cc(Cl)ccc1O [IMD-0354]
inactive: [1] > 30 µM | [2] > 30 µM | [3] > 30 µM

N#CC[C@H](C1CCCC1)n1cc(-c2ncnc3[nH]ccc23)cn1 [RUXOLITINIB]
inactive: [2] > 30 µM | [3] > 30 µM

Cc1nc(NC(=O)N2CCC[C@H]2C(N)=O)sc1-c1ccnc(C(C)(C)C(F)(F)F)c1 [ALPELISIB]
inactive: [1] > 30 µM | [2] > 30 µM | [3] > 30 µM

Cn1ncc(Cl)c1-c1cc(C(=O)N[C@H](CN)Cc2ccc(F)c(F)c2)oc1Cl [UPROSERTIB]
inactive: [1] > 30 µM | [2] > 30 µM | [3] > 30 µM

CCCCCCCCCCCCCCCCCCOP(=O)([O-])OC1CC[N+](C)(C)CC1 [PERIFOSINE]
inactive: [1] > 30 µM | [2] > 30 µM | [3] > 30 µM

C[C@H]1CNCCCN1S(=O)(=O)c1cccc2cncc(F)c12
inactive: [1] > 30 µM | [2] > 30 µM | [3] > 30 µM

C[C@@H](Oc1cc(C(=O)Nc2ccc(C(=O)N3CCN(C)CC3)cc2)nnc1N)c1c(Cl)ccc(F)c1Cl
inactive: [1] > 30 µM | [2] > 30 µM | [3] > 30 µM

Cc1cccc(-c2nn3c(c2-c2ccnc4ccc(C(N)=O)cc24)CCC3)n1 [GALUNISERTIB]
inactive: [1] > 30 µM | [2] > 30 µM | [3] > 30 µM

COc1cc([C@@H]2c3cc4c(cc3[C@H](O)[C@H]3COC(=O)[C@@H]23)OCO4)cc(OC)c1OC [AXL-1717]
inactive: [1] > 30 µM | [2] > 30 µM | [3] > 30 µM

Cc1[nH]c(/C=C2\C(=O)Nc3ccccc32)c(C)c1CCC(=O)O [ORANTINIB]
inactive: [1] > 30 µM | [2] > 30 µM | [3] > 30 µM

CNC(=O)c1ccccc1Sc1ccc2c(/C=C/c3ccccn3)n[nH]c2c1 [AXITINIB]
inactive: [2] > 30 µM | [3] > 30 µM

C[C@@H](Oc1cc(-n2cnc3ccc(CN4CCN(C)CC4)cc32)sc1C(N)=O)c1ccccc1C(F)(F)F [GSK-461364]
inactive: [2] > 30 µM | [3] > 30 µM

CCOc1cc2ncc(C#N)c(Nc3ccc(F)c(Cl)c3)c2cc1NC(=O)/C=C/CN(C)C [PELITINIB]
inactive: [2] > 30 µM | [3] > 30 µM | [4] > 30 µM

O=C(NOCCO)c1cc(CN2OCCCC2=O)c(F)c(F)c1Nc1ccc(I)cc1F [RO-4987655]
inactive: [2] > 30 µM | [3] > 30 µM

O=C(Nc1c[nH]nc1-c1nc2cc(CN3CCOCC3)ccc2[nH]1)NC1CC1 [AT-9283]
inactive: [1] > 30 µM | [2] > 30 µM | [3] > 30 µM
